One data set concerns mice. Description: Acute toxicity, mouse. The class given is in vivo. The conditions noted are these: Table 7, 1000 mg/kg p.o., 24 hours. The procedure:
The acute toxicity of the compounds of the invention was examined by the following method.
Male ddy-strain 5-week old mice and male Wistar-strain 8 week old rats, five per group, were used as experimental animals. Each of the compounds was dissolved in saline and administered perorally, and the toxicity of the compound was assessed 24 hours after the administration.

Data set [1] has as its system mouse neuroblastoma cell line neuro-2a. Description: Activity on neuro-2a, cells with outgrown neurites. The class given is cell-based. The procedure:
In order to examine the effects of the test compounds, the following method was also employed.
Mouse neuro 2a cells in the logarithmic growth period in the Dulbecco's modified Eagle's medium (DMEM) containing 10% FCS was seeded in a 48-well plate so that the number of cells was 1,000 cells/well, and cultured for one day in 0.25 ml of the culture fluid in each well. The culture medium was then replaced by a medium containing each of the test compounds and FCS, and the cells were further cultured for 24 hours. Then, a 4% aqueous glutaraldehyde solution in the same amount as the medium (0.25 ml) was added, and the culture fluid was left to stand at room temperature for 2 hours to fix the cells. After washing with water, a 0.05% aqueous solution of methylene blue was added to stain the cells. Under a microscope, the number of cells containing outgrown neurites (cells having at least one neutrite with a length at least two times as large as the long diameter of the cell) was counted visually, and the proportion of these cells in the entire cells was calculated. The well was observed over 5 or more visual fields (at least 2% of the entire surface area of the well) continuous to the left and right from a mark put at the center of the well, and more than 200 cells was counted. One drug compound was used in 6 different concentrations at most, and three runs were conducted for each concentration.

The test system of data set [2] is human neuroblastoma cell line GOTO. The data set can be described thus: Activity on neuroblastoma cell line GOTO (cell number, number and length of neurites). Format: cell-based. The note with it: for Number of cells (mean ± S.E.): control 5.30 ± 0.23. The procedure:
(§1) The biological activities in vitro of the compounds of formula (I) on cells of the nervous system were tested. The cells tested were human neuroblastoma cell line GOTO [see Sekiguchi, M., Oota, T., Sakakibara, K., Inui, N. & Fujii, G., Japan. J. Exp. Med., 49, 67-83 (1979)], and neuroblastoma cell line NB-1 [see Miyake, S., Shimo, Y., Kitamura, T., Nojyo, Y., Nakamura, T., Imkashuku, S. and Abe, T., The Autonomic Nervous System, 10, 115-120 (1973)], and mouse neuroblastoma cell line neuro-2a (Dainippon Pharmaceutical Co., Ltd.) which have been established as the cells of the nervous system. The above neuve cells were grown in an incubator at 37° C. in the presence of 5% carbon dioxide gas exponentially, and then cultivated for a certain period of time together with the compounds of formula (I).
The effect of the compounds of this invention on neuroblastoma cells was examined by the following method.
A culture medium [composed of 45% of RPMI 1640 medium, 45% modified Eagle's medium (MEM) and 10% of fetal calf serum (FCS) and containing penicillin G sodium (100 units/ml) and streptomycin sulfate (100 microgram/ml)] containing neurobalstoma cell line GOTO in the logarithmic growth period was poured in an amount of 2 ml each into polystyrene dishes (35 mm; made by Corning Co.) so that the cell concentration was 2 to 6×10^4 cells per dish, and the cells were cultured for 1 to 2 days in a carbon dioxide gas incubator containing 5% of carbon dioxide gas in air at 37° C. Then, the culture fluid was removed, and 2 ml of a fresh serum-free culture fluid (consisting of 50% of RPMI medium and 50% of MEM medium and containing penicillin G sodium and streptomycin sulfate in the same amounts as above) was added. At the same time, a presterilized PBS solution (phosphate buffered saline) of each of the test compounds in various concentrations was added to each of the dishes. After culturing for 24 hours, the number of living cells was counted. Furthermore, the culture was photographed, and from the photos, the number and length of neurites per cell were measured. The numer of living cells was counted for 3 to 6 dishes by resistance to staining with erythrosine dye. The number and length of the neurites were measured with regard to 6 photos (more than 200 cells per photo).

The test system of data set [3] is mouse neuroblastoma cell line neuro-2a. The data set can be described thus: Activity on cell line neuro-2a (simple method). Format: cell-based. As for the experimental part:
as §1, with “(I). […]” for “(I).”
As a simple method of evaluation, the number of cells have neurites with a length equal to, or larger than, the long diameter of the cell was divided by the total number of cells.

[4] abbreviates: Table 3 Run No. 6, 0.1 mM, control 4.4 ± 0.9.

In the case of `c1ccc(CN2CCN(c3ncccn3)CC2)cc1` [Compound 132], the “Number of dead animals/number of test animals” value in the data set on mice is reported as 0/5. Further, the “Cells having neurites with a length at least twice the long diameter of cell/total number of cells” value was 4.2 ± 1.0% in data set [1] (Table 3 Run No. 1, 0.027 μM, control 2.2 ± 0.8); 4.3 ± 1.2% in data set [1] (Table 3 Run No. 1, 0.27 μM, control 2.2 ± 0.8); 4.3 ± 0.5% in data set [1] (Table 3 Run No. 1, 27 μM, control 2.2 ± 0.8); 4.4 ± 0.7% in data set [1] (Table 3 Run No. 2, 0.1 mM, control 1.9 ± 0.9); 11.2 ± 1.3% in data set [1] (Table 3 Run No. 2, 0.3 mM, control 1.9 ± 0.9); 9.1 ± 3.0% in data set [1] (Table 3 Run No. 2, 1 mM, control 1.9 ± 0.9). Further, the “Number of neurites/cell (mean ± S.D.)” value in data set [2] (Table 1 Run No. 5, 1 μg/ml, control 1.96 ± 0.64) was 1.95 ± 0.46 neurites/cell; in data set [2] (Table 1 Run No. 5, 10 μg/ml, control 1.96 ± 0.64), 2.03 ± 0.63 neurites/cell. Further, the “Number of cells (mean ± S.E.)” value in data set [2] (Table 1 Run No. 5, 1 μg/ml) is recorded as 5.63 ± 0.68 × 10^4 /dish; in data set [2] (Table 1 Run No. 5, 10 μg/ml), 6.26 ± 0.27 × 10^4 /dish. The “Length of neurites (mean ± S.D.)” value in data set [2] (Table 1 Run No. 5, 1 μg/ml, control 46.41 ± 33.28) is 52.61 ± 32.09 μm/cell; in data set [2] (Table 1 Run No. 5, 10 μg/ml, control 46.41 ± 33.28) it was 52.85 ± 30.00 μm/cell.

Take `O=C1CCCc2nc(N3CCNCC3)ncc2N1` [Compound 502]: the “Number of dead animals/number of test animals” value in the data set with mice is on record as 0/5. Moreover, the “Cells having neurites with a length at least twice the long diameter of cell/total number of cells” value turned out to be 5.5 ± 2.0% in data set [1] (Table 3 Run No. 8, 0.3 mM, control 3.7 ± 0.4) and 7.8 ± 1.2% in data set [1] (Table 3 Run No. 8, 1 mM, control 3.7 ± 0.4). Further, in data set [2] (Table 1, Run No. 7 by footnote, 1 μg/ml, control 42.20 ± 17.75, all *P <0.01), the “Length of neurites (mean ± S.D.)” value turned out to be 52.24 ± 23.92 μm/cell. Further, in data set [2] (Table 1, last control group (Run No. 7 by footnote), 1 μg/ml, control 1.77 ± 0.68), the “Number of neurites/cell (mean ± S.D.)” value is on record as 1.99 ± 0.65 neurites/cell.

In the case of `O=C1NCc2nc(N3CCNCC3)ncc21` [Compound 620], the “Number of dead animals/number of test animals” value with mice was 0/5. The “Average of the proportions” value in data set [3] (Table 2 neuro-2a Run No. 3, 0.01 μg/ml, control 2.0) was 13.01%; in data set [3] (Table 2 neuro-2a Run No. 3, 0.1 μg/ml, control 2.0) it was 15.46%; in data set [3] (Table 2 neuro-2a Run No. 3, 1 μg/ml, control 2.0) it was 9.8%. The “Cells having neurites with a length at least twice the long diameter of cell/total number of cells” value is 7.2 ± 0.3% in data set [1] (setting [4]); 10.5 ± 3.2% in data set [1] (Table 3 Run No. 6, 1 mM, control 4.4 ± 0.9); 20.7 ± 2.5% in data set [1] (Table 3 Run No. 6, 3 mM, control 4.4 ± 0.9); 6.2 ± 1.5% in data set [1] (Table 3 Run No. 9, 0.3 mM, control 2.0 ± 1.0); 11.3 ± 3.3% in data set [1] (Table 3 Run No. 9, 1 mM, control 2.0 ± 1.0); 19.6 ± 0.5% in data set [1] (Table 3 Run No. 9, 3 mM, control 2.0 ± 1.0).

In the case of `Cn1[nH]c2nc(N3CCNCC3)ncc2c1=O` [Compound 802], the “Average of the proportions” value in data set [3] (Table 2 neuro-2a Run No. 2, 1 μg/ml, control 7.9) came to 19.68%; in data set [3] (Table 2 neuro-2a Run No. 2, 10 μg/ml, control 7.9) it was 15.51%. The “Cells having neurites with a length at least twice the long diameter of cell/total number of cells” value in data set [1] (setting [4]) turned out to be 7.5 ± 2.2%. Moreover, the “Number of neurites/cell (mean ± S.D.)” value in data set [2] (Table 1, Run No. 7 by footnote, 10 μg/ml, control 1.77 ± 0.68) turned out to be 2.02 ± 0.71 neurites/cell. Also, the “Length of neurites (mean ± S.D.)” value in data set [2] (Table 1, Run No. 7 by footnote, 10 μg/ml, control 42.20 ± 17.75, all *P <0.01) worked out at 52.16 ± 19.79 μm/cell.

The values above are taken from patent US4959368A, “Therapeutic agent for neurological diseases” (Mitsui Petrochemical Industries Ltd., priority 1986, dated 1990).
